Experimental data reported in patent publication US12473250B2, “Molecular design of new antibiotics and antibiotic adjuvants against MCR strains” (priority 2019, dated 2025).

Legend:
[1] = system: colistin resistant MCR (+) E. Coli strains; assay: MIC, broth microdilution, compound alone; assay type: cell-based
Method in brief: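 Modified CLSI broth microdilution; inoculum from 18–20 h TSA colonies adjusted to 0.5 McFarland, ~5×10^5 CFU/mL per well. Plates incubated 24 h at 35 °C; turbidity may be read at OD600. MIC defined as concentration giving 99% inhibition.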

[2] = system: ACBA multi-drug resistant strains; assay: MIC against multi-drug resistant strains (Table 5); assay type: cell-based, Acinetobacter baumannii; conditions: alone
Method: (§1) MIC experiments of the antimicrobial agents were determined by a modified broth microdilution method in accordance with the Clinical and Laboratory Standards Institute (CLSI) guidelines using 96 well culture plates. In brief, serial dilutions of all plates were prepared at different concentrations (μg). The inoculum suspension was prepared by adding isolated colonies from a 18-20 hours on TSA plate into phosphate buffer (0.31 mM, pH 7.2) or in water for injection (BBraun) and adjusting the suspension to a turbidity equivalent to 0.5 McFarland Standard. Each well contained a final bacterial concentration of approximately 5×10^5 colony forming units (CFU)/mL. The plate was covered and incubated at 35° C. for 24 hours. […] For the microdilution plates, turbidity in wells can be measured at OD600 using TECAN infinite M200Pro. MIC was determined as […] concentration that gives a 99 percent inhibition.

[3] = system: ENT CLOACAE multi-drug resistant strains; assay: MIC against multi-drug resistant strains (Table 5); assay type: cell-based, E. cloacae; conditions: alone
Method: as §1

[4] = system: various pathogens; assay: organism not typed; assay type: cell-based
Method in brief: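 Broth microdilution MIC per CLSI: each agent alone and LC compound plus antibiotic (e.g. colistin) combined in equal amounts, serially diluted 2-fold at fixed synergy concentration.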

[5] = 6093560257 [MCR 1+, E. Coli, NDM-1]
[6] = 7103531927 [MCR 1+, E. Coli, KPC+]
[7] = 7113636863 [MCR 1+, E. Coli, NDM-1]

Substance: Colistin
- colistin MIC ([1]; colistin alone): more than 6 μg/ml
- MIC ([1]; panel of colistin resistant strains): 6.25 µg/mL
- MIC ([1]; strain 6075066346, MCR (+), compound alone): 6.25 µg/mL
- MIC ([1]; strain 6083655967, MCR (+), compound alone): 6.25 µg/mL
- MIC ([1]; strain 6103645107, MCR (+), compound alone): 6.25 µg/mL
- MIC ([1]; strain 6123520276, MCR (+), compound alone): 6.25 µg/mL
- MIC ([1]; strain 7013177695, MCR (+), compound alone): 6.25 µg/mL
- MIC ([1]; strain 7023436560, MCR (+), compound alone): 6.25 µg/mL
- MIC ([1]; strain 7023444207, MCR (+), compound alone): 6.25 µg/mL
- MIC ([2]; strain ACBA 1010): 0.78 µg/mL
- MIC ([2]; strain ACBA 1012): 0.78 µg/mL
- MIC ([2]; strain ACBA 43357): 3.125 µg/mL
- MIC ([2]; strain ACBA ATCC 19606): 1.56 µg/mL
- MIC ([3]; strain ENT CLOACAE 6780): 1.56 µg/mL
- MIC ([3]; strain ENT CLOACAE 21489): 0.78 µg/mL
- MIC ([3]; strain ENT CLOACAE 30063): >50 µg/mL
- MIC ([3]; strain ENT CLOACAE 44095): >50 µg/mL
- FOLD CHANGES [Absorbance (abs; OD 600 nm)] No Treatment [Bacteria alone]: Colistin 0.5 μg ([4]; 6083655967 [MCR 1+, E. Coli]): 1.10
- FOLD CHANGES [Absorbance (abs; OD 600 nm)] No Treatment [Bacteria alone]: MIC Colistin ([4]; 6083655967 [MCR 1+, E. Coli]): 19.59
- MIC ([4]; 6083655967 [MCR 1+, E. Coli]): 6.25 µg/mL
- FOLD CHANGES [Absorbance (abs; OD 600 nm)] No Treatment [Bacteria alone]: Colistin 0.5 μg [4, 5]: 1.14
- FOLD CHANGES [Absorbance (abs; OD 600 nm)] No Treatment [Bacteria alone]: MIC Colistin [4, 5]: 21.59
- MIC [4, 5]: 6.25 µg/mL
- FOLD CHANGES [Absorbance (abs; OD 600 nm)] No Treatment [Bacteria alone]: Colistin 0.5 μg ([4]; 6123520276 [MCR 1+, E. Coli]): 1.04
- FOLD CHANGES [Absorbance (abs; OD 600 nm)] No Treatment [Bacteria alone]: MIC Colistin ([4]; 6123520276 [MCR 1+, E. Coli]): 20.10
- MIC ([4]; 6123520276 [MCR 1+, E. Coli]): 6.25 µg/mL
- FOLD CHANGES [Absorbance (abs; OD 600 nm)] No Treatment [Bacteria alone]: Colistin 0.5 μg ([4]; 7023436560 [MCR 1+, E. Coli]): 1.14
- FOLD CHANGES [Absorbance (abs; OD 600 nm)] No Treatment [Bacteria alone]: MIC Colistin ([4]; 7023436560 [MCR 1+, E. Coli]): 18.70
- MIC ([4]; 7023436560 [MCR 1+, E. Coli]): 6.25 µg/mL
- FOLD CHANGES [Absorbance (abs; OD 600 nm)] No Treatment [Bacteria alone]: Colistin 0.5 μg ([4]; 7023444207 [MCR 1+, E. Coli]): 1.10
- FOLD CHANGES [Absorbance (abs; OD 600 nm)] No Treatment [Bacteria alone]: MIC Colistin ([4]; 7023444207 [MCR 1+, E. Coli]): 17.44
- MIC ([4]; 7023444207 [MCR 1+, E. Coli]): 6.25 µg/mL
- FOLD CHANGES [Absorbance (abs; OD 600 nm)] No Treatment [Bacteria alone]: Colistin 0.5 μg ([4]; 7023446108 [MCR 1−, E. Coli]): 1.15
- FOLD CHANGES [Absorbance (abs; OD 600 nm)] No Treatment [Bacteria alone]: MIC Colistin ([4]; 7023446108 [MCR 1−, E. Coli]): 18.04
- MIC ([4]; 7023446108 [MCR 1−, E. Coli]): 6.25 µg/mL
- FOLD CHANGES [Absorbance (abs; OD 600 nm)] No Treatment [Bacteria alone]: Colistin 0.5 μg ([4]; 7033607097 [MCR 1−, E. Coli]): 1.35
- FOLD CHANGES [Absorbance (abs; OD 600 nm)] No Treatment [Bacteria alone]: MIC Colistin ([4]; 7033607097 [MCR 1−, E. Coli]): 15.21
- MIC ([4]; 7033607097 [MCR 1−, E. Coli]): 6.25 µg/mL
- FOLD CHANGES [Absorbance (abs; OD 600 nm)] No Treatment [Bacteria alone]: Colistin 0.5 μg [4, 6]: 1.06
- FOLD CHANGES [Absorbance (abs; OD 600 nm)] No Treatment [Bacteria alone]: MIC Colistin [4, 6]: 17.67
- MIC [4, 6]: 6.25 µg/mL
- FOLD CHANGES [Absorbance (abs; OD 600 nm)] No Treatment [Bacteria alone]: Colistin 0.5 μg [4, 7]: 1.06
- FOLD CHANGES [Absorbance (abs; OD 600 nm)] No Treatment [Bacteria alone]: MIC Colistin [4, 7]: 16.97
- MIC [4, 7]: 6.25 µg/mL
- FOLD CHANGES [Absorbance (abs; OD 600 nm)] No Treatment [Bacteria alone]: Colistin 0.5 μg ([4]; ACBA 1003 (CI)): 1.26
- FOLD CHANGES [Absorbance (abs; OD 600 nm)] No Treatment [Bacteria alone]: MIC Colistin ([4]; ACBA 1003 (CI)): 12.60
- MIC ([4]; ACBA 1003 (CI)): 1.56 µg/mL
- FOLD CHANGES [Absorbance (abs; OD 600 nm)] No Treatment [Bacteria alone]: Colistin 0.5 μg ([4]; ACBA 1004 (CI)): 1.09
- FOLD CHANGES [Absorbance (abs; OD 600 nm)] No Treatment [Bacteria alone]: MIC Colistin ([4]; ACBA 1004 (CI)): 23.71
- MIC ([4]; ACBA 1004 (CI)): 1.56 µg/mL
- FOLD CHANGES [Absorbance (abs; OD 600 nm)] No Treatment [Bacteria alone]: Colistin 0.5 μg ([4]; ACBA 1005 (CI)): 1.02
- FOLD CHANGES [Absorbance (abs; OD 600 nm)] No Treatment [Bacteria alone]: MIC Colistin ([4]; ACBA 1005 (CI)): 22.34
- MIC ([4]; ACBA 1005 (CI)): 1.56 µg/mL
- FOLD CHANGES [Absorbance (abs; OD 600 nm)] No Treatment [Bacteria alone]: Colistin 0.5 μg ([4]; ACBA 1006 (CI)): 1.12
- FOLD CHANGES [Absorbance (abs; OD 600 nm)] No Treatment [Bacteria alone]: MIC Colistin ([4]; ACBA 1006 (CI)): 23.81
- MIC ([4]; ACBA 1006 (CI)): 1.56 µg/mL
- FOLD CHANGES [Absorbance (abs; OD 600 nm)] No Treatment [Bacteria alone]: Colistin 0.5 μg ([4]; ACBA 1010 (CI)): 1.13
- FOLD CHANGES [Absorbance (abs; OD 600 nm)] No Treatment [Bacteria alone]: MIC Colistin ([4]; ACBA 1010 (CI)): 21.43
- MIC ([4]; ACBA 1010 (CI)): 0.39 µg/mL
- FOLD CHANGES [Absorbance (abs; OD 600 nm)] No Treatment [Bacteria alone]: Colistin 0.5 μg ([4]; ACBA ATCC 19606): 2.04
- FOLD CHANGES [Absorbance (abs; OD 600 nm)] No Treatment [Bacteria alone]: MIC Colistin ([4]; ACBA ATCC 19606): 16.14
- MIC ([4]; ACBA ATCC 19606): 0.78 µg/mL
- FOLD CHANGES [Absorbance (abs; OD 600 nm)] No Treatment [Bacteria alone]: Colistin 0.5 μg ([4]; ACBA DR 43357): 1.06
- FOLD CHANGES [Absorbance (abs; OD 600 nm)] No Treatment [Bacteria alone]: MIC Colistin ([4]; ACBA DR 43357): 25.47
- MIC ([4]; ACBA DR 43357): 1.56 µg/mL
- FOLD CHANGES [Absorbance (abs; OD 600 nm)] No Treatment [Bacteria alone]: Colistin 0.5 μg ([4]; E. Coli ATCC 8739): 1.85
- FOLD CHANGES [Absorbance (abs; OD 600 nm)] No Treatment [Bacteria alone]: MIC Colistin ([4]; E. Coli ATCC 8739): 20.68
- MIC ([4]; E. Coli ATCC 8739): 0.78 µg/mL
- FOLD CHANGES [Absorbance (abs; OD 600 nm)] No Treatment [Bacteria alone]: Colistin 0.5 μg ([4]; E. Coli ATCC 10536): 1.11
- FOLD CHANGES [Absorbance (abs; OD 600 nm)] No Treatment [Bacteria alone]: MIC Colistin ([4]; E. Coli ATCC 10536): 18.42
- MIC ([4]; E. Coli ATCC 10536): 0.78 µg/mL
- FOLD CHANGES [Absorbance (abs; OD 600 nm)] No Treatment [Bacteria alone]: Colistin 0.5 μg ([4]; E. Coli ATCC 25922): 1.23
- FOLD CHANGES [Absorbance (abs; OD 600 nm)] No Treatment [Bacteria alone]: MIC Colistin ([4]; E. Coli ATCC 25922): 18.24
- MIC ([4]; E. Coli ATCC 25922): 0.78 µg/mL
- FOLD CHANGES [Absorbance (abs; OD 600 nm)] No Treatment [Bacteria alone]: Colistin 0.5 μg ([4]; E. Coli ATCC 35218): 1.31
- FOLD CHANGES [Absorbance (abs; OD 600 nm)] No Treatment [Bacteria alone]: MIC Colistin ([4]; E. Coli ATCC 35218): 24.46
- MIC ([4]; E. Coli ATCC 35218): 0.78 µg/mL
- FOLD CHANGES [Absorbance (abs; OD 600 nm)] No Treatment [Bacteria alone]: Colistin 0.5 μg ([4]; E. Coli CRE 11804): 1.19
- FOLD CHANGES [Absorbance (abs; OD 600 nm)] No Treatment [Bacteria alone]: MIC Colistin ([4]; E. Coli CRE 11804): 17.29
- MIC ([4]; E. Coli CRE 11804): 0.78 µg/mL
